For assay [1], the target named is Beta-3 Adrenergic Receptor (Homo sapiens (Human), UniProt P13945). As to the kind of experiment: HTRF cAMP antagonist assay (IC50 determination). It is filed as cell-based. Conditions: CHO-K1 cells stably expressing recombinant receptor; antagonism of isoproterenol at EC90; cAMP readout. The method, boiled down: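 In this functional readout, recombinant CHO-K1 cells received compound, then isoproterenol at its EC90. After 1 h at room temperature, cAMP levels were determined by HTRF using an on-plate standard curve, and IC50 values were fitted.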
Chain of Beta-3 Adrenergic Receptor (P13945 whole entry, species assumed): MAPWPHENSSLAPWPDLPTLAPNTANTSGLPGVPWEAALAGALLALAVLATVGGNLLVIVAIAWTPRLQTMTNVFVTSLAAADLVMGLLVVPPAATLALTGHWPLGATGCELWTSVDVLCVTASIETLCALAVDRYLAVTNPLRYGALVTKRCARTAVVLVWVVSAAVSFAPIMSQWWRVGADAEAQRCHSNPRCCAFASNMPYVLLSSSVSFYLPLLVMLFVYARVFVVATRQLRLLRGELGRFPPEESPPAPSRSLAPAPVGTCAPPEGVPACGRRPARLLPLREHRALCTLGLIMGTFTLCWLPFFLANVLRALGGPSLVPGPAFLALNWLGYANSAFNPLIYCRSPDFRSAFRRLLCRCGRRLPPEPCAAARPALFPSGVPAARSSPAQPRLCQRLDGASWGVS

Another assay concerns normal rats. As to the kind of experiment: Attenuation of negative contractile effect of BRL 37344 on left ventricular pressure in normal rats. Type of assay: in vivo, rat. As to conditions: test compound infusion 3, 10, 30 or 60 mg/kg, BRL 37344 bolus 3 μg/kg. How it is done:
(§1) Beta-3 adrenergic receptor antagonists were evaluated for effects on cardiac contractility in normal and chronic heart failure (CHF) rats. Because beta-3 adrenergic receptor expression is weak in the normal rat heart, compounds were evaluated for the ability to attenuate the negative contractile effects of the beta-3 adrenergic receptor agonist BRL 37344 (Tocris Bioscience, Bristol, UK) in the normal rats. Because beta-3 adrenergic receptor expression is higher in the rat heart with CHF, a compound was evaluated for the ability to improve contractility compared to baseline in this CHF rat model.
A direct determination of left ventricular function was used for all rats to evaluate the effects of compounds on left ventricular contractility. Right carotid artery catheterization was used for contractility measurements. The rats were anesthetized with an intraperitoneal injection of INACTIN® (Cat #T-133, Sigma, St. Louis, Mo.) (100 mg/kg body weight), and a Millar MIKRO-TIP® pressure catheter (Cat #SPR-320NR, Millar, Inc., Houston, Tex.) was passed through the carotid artery into left ventricle. Left ventricular pressure (LVP) was monitored by LabChart with POWERLAB® Data Acquisition System (ADlnstruments, Sydney, Australia).
Jugular vein catheterization was used for compound administration. A silastic catheter (Cat #427411, BD, Franklin Lakes, N.J.) was introduced into the jugular vein, and a right venous catheter was connected to an automated drug delivery system (11 Plus Syringe Pump, Harvard Apparatus, Holliston, Mass.).
In the normal rats, 3 mg/kg, 10 mg/kg, 30 mg/kg, or 60 mg/kg of test compounds were administered starting 30-45 minutes after catheter implantation. A bolus injection of BRL 37344 (3 μg/kg) was administered via the left jugular vein 15-20 minutes after test compound infusion was started, and five minutes before compound infusion was stopped. A blood sample (800 μl) was then taken from the left venous catheter five minutes after the bolus injection of BRL 37344 (FIG. 25).

Assay [2] deals with chronic heart failure (CHF) rats. As to the kind of experiment: Left ventricular contractility in chronic heart failure (CHF) rats. It is filed as in vivo, rat. How it is done: as §1, with “model. […]” for “model.”
Heart failure was evaluated weekly following surgery by testing impaired left ventricular function by echocardiography. Left ventricle end-diastolic volume (LVEDV) and left ventricle end-systolic volume (LVESV) were measured for at least three consecutive cardiac cycles in long-axis view images. Ejection Fraction (EF %) was calculated using the following formula: EF %=(LVEDV−LVESV)/LVEDV. […]
A direct determination of left ventricular function was used for all rats to evaluate the effects of compounds on left ventricular contractility. […] Left ventricular pressure (LVP) was monitored by LabChart with POWERLAB® Data Acquisition System (ADlnstruments, Sydney, Australia). […]
Development of CHF was monitored by echocardiography in rats after the surgically-induced myocardial infarction. […]

Entries after “also recorded” stand apart in the source; their conditions may differ.

For the compound `NC(=O)CS(=O)(=O)c1cccc(OC[C@@H](O)CN[C@H]2COC3(CCN(S(=O)(=O)c4cnc5ccccc5c4)CC3)C2)c1` [Compound 123, 2-(3-((S)-2-hydroxy-3-((R)-8-(quinolin-3-ylsulfonyl)-1-oxa-8-azaspiro[4.5]decan-3-ylamino)propoxy)phenylsulfonyl)acetamide], in assay [1], the half-maximal inhibitory concentration (IC50) worked out at 53.2 nM. Moreover, in the assay with normal rats, the “inhibition of the negative effect of beta-3 adrenergic receptor agonist BRL on LVP” value (“inhibition of the negative effect … on LVP” below) was “dose-dependently inhibited; also recorded: inhibition of negative effects of BRL on LVP”. For `CN1CCOc2ncc(S(=O)(=O)N3CCC4(CC3)C[C@@H](NC[C@H](O)COc3cccc(S(=O)(=O)C5CC5)c3)CO4)cc21` [Compound 154, (S)-1-(3-(cyclopropylsulfonyl)phenoxy)-3-((R)-8-(1-methyl-2,3-dihydro-1H-pyrido[2,3-b][1,4]oxazin-7-ylsulfonyl)-1-oxa-8-azaspiro[4.5]decan-3-ylamino)propan-2-ol], in that order: 17.5 nM and “dose-dependently inhibited; also recorded: inhibition of negative effects of BRL on LVP”. Regarding `CCn1cc(S(=O)(=O)N2CCC3(CC2)C[C@@H](NC[C@H](O)COc2cccc(S(C)(=O)=O)c2)CO3)c(=O)c2ccccc21` [Compound 310, 1-ethyl-3-((R)-3-((S)-2-hydroxy-3-(3-(methylsulfonyl)phenoxy)propylamino)-1-oxa-8-azaspiro[4.5]decan-8-ylsulfonyl)quinolin-4(1H)-one], in assay [1], the half-inhibitory concentration (IC50) turned out to be 37.6 nM. Besides, the “inhibition of the negative effect … on LVP” value with normal rats is recorded as “dose-dependently inhibited; also recorded: inhibition of negative effects of BRL on LVP”. For `CCOc1ccc(-c2ccc(CN)cc2)cc1S(=O)(=O)N1CCC2(CC1)C[C@H](NC[C@H](O)COc1cccc(S(=O)(=O)C3(CO)CC3)c1)CO2` [Compound 163, (S)-1-((S)-8-(4′-(aminomethyl)-4-ethoxybiphenyl-3-ylsulfonyl)-1-oxa-8-azaspiro[4.5]decan-3-ylamino)-3-(3-(1-(hydroxymethyl)cyclopropylsulfonyl)phenoxy)propan-2-ol], in that order: 17.3 nM and “dose-dependently inhibited; also recorded: inhibition of negative effects of BRL on LVP”. For `O=S(=O)(CCO)c1cccc(OC[C@@H](O)CN[C@H]2COC3(CCN(S(=O)(=O)c4cnc5ccccc5c4)CC3)C2)c1` [Compound 88, (S)-1-(3-(2-hydroxyethylsulfonyl)phenoxy)-3-((R)-8-(quinolin-3-ylsulfonyl)-1-oxa-8-azaspiro[4.5]decan-3-ylamino)propan-2-ol], the IC50 in assay [1] came out at 25.1 nM. In the assay on normal rats, the “inhibition of the negative effect … on LVP” value is on record as “dose-dependently inhibited; also recorded: inhibition of negative effects of BRL on LVP”. Moreover, the “contractility compared to baseline” value in assay [2] (rat with CHF, infusion 10 mg/kg then 30 mg/kg, 10 minutes each) is listed as “trend toward improved contractility with increased dosage”. Further, the “inhibition of negative effects of BRL on LVP in a rat with heart failure (figure legend)” value in assay [2] (rat with heart failure, FIG. 32) was “inhibition of negative effects of BRL on LVP”.

Consider `COCCCS(=O)(=O)c1cccc(OC[C@@H](O)CN[C@H]2COC3(CCN(S(=O)(=O)c4cnc5ccccc5c4)CC3)C2)c1` [Compound 149, (S)-1-(3-(3-methoxypropylsulfonyl)phenoxy)-3-((R)-8-(quinolin-3-ylsulfonyl)-1-oxa-8-azaspiro[4.5]decan-3-ylamino)propan-2-ol], for which the IC50 in assay [1] came out at 97.3 nM. The same measure, in the same setting: next, `Cn1cc(-c2cncc(S(=O)(=O)N3CCC4(CC3)C[C@@H](NC[C@H](O)COc3cccc(S(=O)(=O)CCO)c3)CO4)c2)cn1` [Compound 90, (S)-1-(3-(2-hydroxyethylsulfonyl)phenoxy)-3-((R)-8-(5-(1-methyl-1H-pyrazol-4-yl)pyridin-3-ylsulfonyl)-1-oxa-8-azaspiro[4.5]decan-3-ylamino)propan-2-ol]: 354 nM; `CS(=O)(=O)c1cccc(OC[C@@H](O)CNC2COC3(CCN(C(=O)c4ccc5ccccc5c4)CC3)C2)c1` (stereo partly drawn) [Compound 57, (3-((S)-2-hydroxy-3-(3-(methylsulfonyl)phenoxy)propylamino)-1-oxa-8-azaspiro[4.5]decan-8-yl)(naphthalen-2-yl)methanone]: 487 nM. Same read-out and setting: next, `CCn1cc(S(=O)(=O)N2CCC3(CC2)C[C@@H](NC[C@H](O)COc2cccc(S(=O)(=O)C4CC4)c2)CO3)c(=O)c2cc(F)ccc21` [Compound 314, 3-((R)-3-((S)-3-(3-(cyclopropylsulfonyl)phenoxy)-2-hydroxypropylamino)-1-oxa-8-azaspiro[4.5]decan-8-ylsulfonyl)-1-ethyl-6-fluoroquinolin-4(1H)-one]: 270 nM; `O=S(=O)(c1cccc(OC[C@@H](O)CN[C@H]2COC3(CCN(S(=O)(=O)c4c[nH]c5ncccc45)CC3)C2)c1)C1CC1` [Compound 307, (S)-1-((R)-8-(1H-pyrrolo[2,3-b]pyridin-3-ylsulfonyl)-1-oxa-8-azaspiro[4.5]decan-3-ylamino)-3-(3-(cyclopropylsulfonyl)phenoxy)propan-2-ol]: 59.2 nM; `CCn1cc(S(=O)(=O)N2CCC3(CC2)C[C@@H](NC[C@H](O)COc2cccc(S(=O)(=O)C(C)C)c2)CO3)c(=O)c2cccc(F)c21` [Compound 331, 1-ethyl-8-fluoro-3-((R)-3-((S)-2-hydroxy-3-(3-(isopropylsulfonyl)phenoxy)propylamino)-1-oxa-8-azaspiro[4.5]decan-8-ylsulfonyl)quinolin-4(1H)-one]: 30 nM.

Take `CC(C)(CO)S(=O)(=O)c1cccc(OC[C@@H](O)CN[C@H]2COC3(CCN(S(=O)(=O)c4ccc5ncccc5c4)CC3)C2)c1` [Compound 109, 2-(3-((S)-2-hydroxy-3-((R)-8-(quinolin-6-ylsulfonyl)-1-oxa-8-azaspiro[4.5]decan-3-ylamino)propoxy)phenylsulfonyl)-2-methylpropan-1-ol]: the IC50 in assay [1] was determined as 145 nM.

In general, IC50 refers to the concentration that gives 50% inhibition.

The values above are taken from patent US10927123B2, “Modulators of the beta-3 adrenergic receptor useful for the treatment or prevention of disorders related thereto” (Arena Pharmaceuticals, Inc., priority 2016, dated 2021).
